According to US7767798B2, “Loganin analogues and a process for the preparation thereof” (priority 2005, dated 2010):
Converted amounts (≈) assume the structure as drawn. Like-named read-outs stand apart in the source and are kept apart here.

What was measured:
[1] = test system: breast (MCF-7) cancer cell line; assay: MTT cytotoxicity assay, MCF-7; format: cell-based, human; conditions: for IC50: Homo sapiens
Description: (§1) Cytotoxicity testing In-vitro was done by the method of Woerdenberg et al^17. 2×10^3 cells/well were incubated in the 5% CO2, 95% atmosphere and 37° C. in CO2 incubator for 24 h to enable them to adhere properly to the 96 well polysterene microplate (Grenier, Germany). Test compounds dissolved in 100% DMSO (Merck, Germany) in at least five doses were added and left for four hour after which the compound plus media was replaced with fresh media and the cell were incubated for another 48 h in the CO2 incubator at 37° C. […] Then, 10 μL from 5 mg/ml stock of MTT [3-(4,5-dimethylthiazol-2-yl)-2,5-diphenyltetrazolium bromide; Sigma M 2128] was added, and plate were incubated at 37° C. for 4 h. 100 μL of dimethylsulfoxide (DMSO, Merck, Germany) were added to all wells and mixed thoroughly to dissolve the dark blue crystal. After a few minute at room temperature to ensure that all crystal were dissolve, the plate were read on a Spectra Max 190 Microplate Elisa Reader (Molecular Devices Inc., U.S.A), at 570 nm. Plate were normally read within 1 h of adding the DMSO. The experiment was done in triplicate and the inhibitory concentration (IC) values were calculated as; % INHIBITION=[1−OD (570 nm) of sample well/OD (570 nm) of control well]×100. IC50 is the concentration μg/mL required for 50% inhibition of cell growth as compared to that of untreated control.

[2] = test system: Ovary (PA-1) cancer cell line; assay: MTT cytotoxicity assay, PA-1; format: cell-based, human; conditions: for IC50: Homo sapiens, read-out: PA-1 IC50
Description: as §1

[3] = test system: Liver (WRL) cancer cell line; assay: MTT cytotoxicity assay, WRL; format: cell-based, human; conditions: for IC50: Homo sapiens, read-out: WRL IC50
Description: as §1

[4] = test system: Suspension Colon (COLO-320) cancer cell line; assay: MTT cytotoxicity assay, COLO-320; format: cell-based, human; conditions: for IC50: Homo sapiens; for times higher activity than vinblastine: COLO-320
Description: as §1

[5] = test system: Adherent colon (CaCo2) cancer cell line; assay: MTT cytotoxicity assay, CaCo2; format: cell-based, human; conditions: for IC50: Homo sapiens
Description: as §1

[6] = test system: human cancer cell lines (MCF-7, PA-1, WRL, COLO-320, CaCo2); assay: MTT cytotoxicity assay, summary over the tested human cancer cell lines; conditions: for IC50: Homo sapiens; for Dosage range IC50: range of IC50 over the tested cell lines (Table 1)
Description: as §1

[7] = tested human cancer cell lines, comparison with loganin, compound 4 or a neighbouring analogue
[8] = MTT assay, MCF-7 breast cancer cells
[9] = MTT assay, PA-1 ovary cancer cells
[10] = MTT assay, WRL liver cancer cells
[11] = MTT assay, COLO-320 suspension colon cancer cells
[12] = MTT assay, CaCo2 adherent colon cancer cells

## COC(=O)C1=CO[C@@H](O[C@@H]2O[C@H](CO)[C@@H](O)[C@H](O)[C@H]2O)[C@@H]2[C@@H](C)[C@@H](O)C[C@H]12 [Compound 1, loganin]
[1]; MCF7, read-out: MCF-7 IC50
  IC50: 4.85 µg/mL (≈ 12.4 µM)
[2]
  IC50: 1.45 µg/mL (≈ 3.71 µM)
[3]
  IC50: 1.86 µg/mL (≈ 4.76 µM)
[4]; COLO 320, read-out: COLO-320 IC50
  IC50: 1 µg/mL (≈ 2.56 µM)
[5]; Caco-2, read-out: CaCo2 IC50
  IC50: 1.28 µg/mL (≈ 3.28 µM)
[6]; read-out: Dosage range IC50
  IC50: 1 to 5 µg/mL (≈ 2.56 to 12.8 µM)
[6]; read-out: concentration/dose used in vitro MTT assay for IC50, range
  IC50: 1 to 5 µg/mL (≈ 2.56 to 12.8 µM)
[6]; [7]
  cytotoxic activity in words: significant cytotoxic activity

## COC(=O)C1=CO[C@@H](O[C@@H]2O[C@H](COC(c3ccccc3)(c3ccccc3)c3ccccc3)[C@@H](O)[C@H](O)[C@H]2O)[C@@H]2[C@@H](C)[C@@H](O)C[C@H]12 [Compound 2, 6′-O-trityl loganin]
[1]; [8]
  MCF-7 IC50: 1.00 µg/mL
[2]; [9]
  PA-1 IC50: 0.65 µg/mL
[3]; [10]
  WRL IC50: 1.86 µg/mL
[4]; [11]
  COLO-320 IC50: 0.25 µg/mL
[5]; [12]
  CaCo2 IC50: 0.56 µg/mL
[6]
  cytotoxic activity in words: enhanced cytotoxic activity
  Dosage range IC50: 0.25 to 2.0 µg/mL

## COC(=O)C1=COC(O[C@@H]2O[C@H](COC(c3ccccc3)(c3ccccc3)c3ccccc3)[C@@H](OC(C)=O)[C@H](OC(C)=O)[C@H]2OC(C)=O)C2C1CC(OC(C)=O)C2C (stereo partly drawn) [Compound 3, 2′,3′,4′,7-tetra-O-acetyl-6′-O-trityl loganin]
[1]; [8]
  MCF-7 IC50: 1.20 µg/mL
[2]; [9]
  PA-1 IC50: 1.20 µg/mL
[3]; [10]
  WRL IC50: 2.44 µg/mL
[4]; [11]
  COLO-320 IC50: 0.82 µg/mL
[5]; [12]
  CaCo2 IC50: 3.45 µg/mL
[6]
  Dosage range IC50: 0.80 to 3.5 µg/mL
[6]; [7]
  cytotoxic activity in words: enhanced cytotoxic activity

## COC(=O)C1=COC(O[C@@H]2O[C@H](CO)[C@@H](OC(C)=O)[C@H](OC(C)=O)[C@H]2OC(C)=O)C2C1CC(OC(C)=O)C2C (stereo partly drawn) [Compound 4, 2′,3′,4′,7-tetra-O-acetyl loganin]
[6]; [7]
  cytotoxic activity in words: abolished cytotoxicity

## CCC(=O)OC[C@H]1O[C@@H](OC2OC=C(C(=O)OC)C3CC(OC(C)=O)C(C)C23)[C@H](OC(C)=O)[C@@H](OC(C)=O)[C@@H]1OC(C)=O (stereo partly drawn) [Compound 5, 2′,3′,4′,7-Tetra-O-acetyl-6′-O-propionylloganin]
[1]; [8]
  MCF-7 IC50: 1.88 µg/mL
[2]; [9]
  PA-1 IC50: 1.24 µg/mL
[3]; [10]
  WRL IC50: 2.65 µg/mL
[4]; [11]
  COLO-320 IC50: 0.85 µg/mL
[5]; [12]
  CaCo2 IC50: 2.85 µg/mL
[6]; MCF-7, PA-1, WRL, COLO-320 and CaCo-2
  concentration/dose used in vitro MTT assay for IC50, range: 0.80 to 3.0 µg/mL
[6]
  Dosage range IC50: 0.80 to 3.0 µg/mL

## CCCCCCCCCCCC(=O)OC[C@H]1O[C@@H](OC2OC=C(C(=O)OC)C3CC(OC(C)=O)C(C)C23)[C@H](OC(C)=O)[C@@H](OC(C)=O)[C@@H]1OC(C)=O (stereo partly drawn) [Compound 6, 2′,3′,4′,7-Tetra-O-acetyl-6′-O-lauroylloganin]
[1]; [8]
  MCF-7 IC50: 0.24 µg/mL
[2]; [9]
  PA-1 IC50: 0.15 µg/mL
[3]; [10]
  WRL IC50: 0.85 µg/mL
[4]
  times higher activity than vinblastine: 13 times
[4]; [11]
  COLO-320 IC50: 0.04 µg/mL
[5]; [12]
  CaCo2 IC50: 0.42 µg/mL
[6]
  Dosage range IC50: 0.04 to 0.85 µg/mL

## CCCCCCCCCCCCCC(=O)OC[C@H]1O[C@@H](OC2OC=C(C(=O)OC)C3CC(OC(C)=O)C(C)C23)[C@H](OC(C)=O)[C@@H](OC(C)=O)[C@@H]1OC(C)=O (stereo partly drawn) [Compound 7, 2′,3′,4′,7-Tetra-O-acetyl-6′-O-myristoyl loganin]
[1]; [8]
  MCF-7 IC50: 24.60 µg/mL
[2]; [9]
  PA-1 IC50: 6.5 µg/mL
[3]; [10]
  WRL IC50: 58.50 µg/mL
[4]; [11]
  COLO-320 IC50: 30.00 µg/mL
[6]
  Dosage range IC50: 6.5 to 59.0 µg/mL

## C=CC(=O)OC[C@H]1O[C@@H](OC2OC=C(C(=O)OC)C3CC(OC(C)=O)C(C)C23)[C@H](OC(C)=O)[C@@H](OC(C)=O)[C@@H]1OC(C)=O (stereo partly drawn) [Compound 9, 2′,3′,4′,7-Tetra-O-acetyl-6′-O-acryloyl loganin]
[6]; [7]
  cytotoxic activity in words: totally abolished the activity

## COC(=O)C1=COC(O[C@@H]2O[C@H](COC(=O)C=C(C)C)[C@@H](OC(C)=O)[C@H](OC(C)=O)[C@H]2OC(C)=O)C2C1CC(OC(C)=O)C2C (stereo partly drawn) [Compound 10, 2′,3′,4′,7-Tetra-O-acetyl-6′-O-3″,3″-dimethyl acryloylloganin]
[1]; [8]
  MCF-7 IC50: 1.00 µg/mL
[2]; [9]
  PA-1 IC50: 0.65 µg/mL
[3]; [10]
  WRL IC50: 1.20 µg/mL
[4]; [11]
  COLO-320 IC50: 0.08 µg/mL
[5]; [12]
  CaCo2 IC50: 0.80 µg/mL
[6]
  Dosage range IC50: 0.08 to 1.20 µg/mL
[6]; [7]
  cytotoxic activity in words: significant enhancement of anticancer activity

## COC(=O)C1=COC(O[C@@H]2O[C@H](COC(=O)c3cc(OC)c(OC)c(OC)c3)[C@@H](OC(C)=O)[C@H](OC(C)=O)[C@H]2OC(C)=O)C2C1CC(OC(C)=O)C2C (stereo partly drawn) [Compound 11, 2′,3′,4′,7-Tetra-O-acetyl-6′-O-3,4,5-trimethoxy benzoyl loganin]
[1]; [8]
  MCF-7 IC50: 0.25 µg/mL
[2]; [9]
  PA-1 IC50: 0.10 µg/mL
[3]; [10]
  WRL IC50: 0.54 µg/mL
[4]
  times higher activity than vinblastine: 13 times
[4]; [11]
  COLO-320 IC50: 0.04 µg/mL
[5]; CaCO2
  times higher activity than vinblastine: 8 times
[5]; [12]
  CaCo2 IC50: 0.06 µg/mL
[6]
  Dosage range IC50: 0.044 to 3.54 µg/mL
[6]; [7]
  cytotoxic activity in words: significant enhancement in the cytotoxicity

## COC(=O)C1=COC(O[C@@H]2O[C@H](COC(=O)c3cccc([N+](=O)[O-])c3)[C@@H](OC(C)=O)[C@H](OC(C)=O)[C@H]2OC(C)=O)C2C1CC(OC(C)=O)C2C (stereo partly drawn) [Compound 12, 2′,3′,4′,7-Tetra-O-acetyl-6′-O-(3′″)-nitrobenzoyl loganin]
[1]; [8]
  MCF-7 IC50: 1.25 µg/mL
[2]; [9]
  PA-1 IC50: 0.85 µg/mL
[3]; [10]
  WRL IC50: 3.20 µg/mL
[4]; [11]
  COLO-320 IC50: 0.44 µg/mL
[5]; [12]
  CaCo2 IC50: 1.00 µg/mL
[6]
  Dosage range IC50: 0.44 to 3.20 µg/mL
[6]; [7]
  cytotoxic activity in words: slightly decreased the activity

## CC[C@]1(O)C[C@@H]2CN(CCc3c([nH]c4ccccc34)[C@@](C(=O)OC)(c3cc4c(cc3OC)N(C)[C@H]3[C@@](O)(C(=O)OC)[C@H](OC(C)=O)[C@]5(CC)C=CCN6CC[C@]43[C@@H]65)C2)C1 [Vinblastine, vinblastine, reference compound]
[1]; MCF7, MTT assay, MCF-7 breast cancer cells, read-out: MCF-7 IC50
  IC50: 0.02 µg/mL (≈ 0.0247 µM)
[2]; [9]
  IC50: 0.025 µg/mL (≈ 0.0308 µM)
[3]; [10]
  IC50: 1.45 µg/mL (≈ 1.79 µM)
[4]; MTT assay, COLO-320 suspension colon cancer cells, read-out: COLO-320 IC50
  IC50: 0.52 µg/mL (≈ 0.641 µM)
[5]; Caco-2, MTT assay, CaCo2 adherent colon cancer cells, read-out: CaCo2 IC50
  IC50: 0.46 µg/mL (≈ 0.567 µM)
[6]; read-out: Dosage range IC50
  IC50: 0.02 to 1.45 µg/mL (≈ 0.0247 to 1.79 µM)
